Source: PubChem BioAssay (NCI)
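Briefly, cells in 96-well plates were exposed to five compound concentrations for 48 h, and endpoints were estimated by linear interpolation. Here, GI50 denotes the concentration required for 50% inhibition of growth. TGI: concentration producing complete growth inhibition.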

Legend:
Assay in all cases: NCI-60 cell line screen, 48 h
[1] = system: BT-549 breast
[2] = system: 786-0 renal
[3] = system: DU-145 prostate
[4] = system: HOP-92 NSCLC
[5] = system: SNB-19 CNS
[6] = system: OVCAR-5 ovarian
[7] = system: NCI-H23 lung
[8] = system: HT29 colon
[9] = system: HOP-62 NSCLC
[10] = system: M14 melanoma
[11] = system: NCI-H522 lung
[12] = system: SR leukemia
[13] = system: HCT-15 colon
[14] = system: MALME-3M melanoma
[15] = system: NCI-H226 lung
[16] = system: KM12 colon
[17] = system: COLO 205 colon
[18] = system: U251 CNS
[19] = system: IGROV1 ovarian
[20] = system: MDA-MB-231 breast
[21] = system: A498 renal
[22] = system: MDA-MB-435
[23] = system: MCF7 breast
[24] = system: CCRF-CEM leukemia
[25] = system: EKVX NSCLC
[26] = system: SK-MEL-28 melanoma
[27] = system: SK-MEL-5 melanoma
[28] = system: SF-295 CNS
[29] = system: A549 NSCLC
[30] = system: CAKI-1 renal
[31] = system: OVCAR-8 ovarian
[32] = system: UACC-257 melanoma
[33] = system: LOX IMVI melanoma
[34] = system: TK-10 renal
[35] = system: HS 578T breast
[36] = system: K-562 leukemia
[37] = system: SW-620 colon
[38] = system: UACC-62 melanoma
[39] = system: RPMI-8226 leukemia
[40] = system: OVCAR-3 ovarian
[41] = system: UO-31 renal
[42] = system: PC-3 prostate
[43] = system: MOLT-4 leukemia
[44] = system: T-47D breast
[45] = system: SF-539 CNS
[46] = system: SK-OV-3 ovarian
[47] = system: SF-268 CNS
[48] = system: SN12C renal
[49] = system: NCI-H460 lung
[50] = system: SNB-75 CNS
[51] = system: HL-60(TB) leukemia
[52] = system: ACHN renal
[53] = system: NCI/ADR-RES ovarian
[54] = system: RXF 393 renal
[55] = system: HCT-116 colon
[56] = system: SK-MEL-2 melanoma
[57] = system: OVCAR-4 ovarian
[58] = system: HCC-2998 colon

**Q.** Which results are given for `COc1ccc(C(=O)c2cc(OC)c(C)c(OC)c2)cc1OC(=O)CCl`?
**A.** GI50 [1]: 0.395 µM; TGI [1]: 10.3 µM; GI50 [2]: 3.65 µM; TGI [2]: > 79.5 µM; GI50 [3]: 0.322 µM; TGI [3]: 18.2 µM; GI50 [4]: 3.22 µM; TGI [4]: 58.5 µM; GI50 [5]: 0.388 µM; TGI [5]: > 100 µM; GI50 [6]: 4.37 µM; TGI [6]: > 100 µM; GI50 [7]: 0.558 µM; TGI [7]: > 100 µM; GI50 [8]: 4.21 µM; TGI [8]: 27.6 µM; GI50 [9]: 0.668 µM; TGI [9]: > 100 µM; GI50 [10]: 0.0693 µM; TGI [10]: 12.2 µM; GI50 [11]: 0.21 µM; TGI [11]: 14.1 µM; GI50 [12]: 0.0305 µM; TGI [12]: 13.2 µM; GI50 [13]: 0.0697 µM; TGI [13]: 27.2 µM; GI50 [14]: 0.572 µM; TGI [14]: 48.1 µM; GI50 [15]: 8 µM; TGI [15]: > 30.6 µM; GI50 [16]: 0.13 µM; TGI [16]: > 44.2 µM; GI50 [17]: 7.78 µM; TGI [17]: 69.4 µM; GI50 [18]: 0.415 µM; TGI [18]: > 45.3 µM; GI50 [19]: 1.19 µM; TGI [19]: > 100 µM; GI50 [20]: 0.353 µM; TGI [20]: 18.6 µM; GI50 [21]: 2.09 µM; TGI [21]: 7.39 µM; GI50 [22]: 0.0265 µM; TGI [22]: 0.0902 µM; GI50 [23]: 0.361 µM; TGI [23]: > 100 µM; GI50 [24]: 0.331 µM; TGI [24]: > 100 µM; GI50 [25]: 3.6 µM; TGI [25]: > 100 µM; GI50 [26]: 0.732 µM; TGI [26]: 40.4 µM; GI50 [27]: 0.463 µM; TGI [27]: 3.4 µM; GI50 [28]: 0.764 µM; TGI [28]: 30.7 µM; GI50 [29]: 1.11 µM; TGI [29]: > 100 µM; GI50 [30]: 0.591 µM; TGI [30]: 77.7 µM; GI50 [31]: 0.507 µM; TGI [31]: > 100 µM; GI50 [32]: 14 µM; TGI [32]: > 95.8 µM; GI50 [33]: 0.244 µM; TGI [33]: 19.6 µM; GI50 [34]: 17.2 µM; TGI [34]: > 100 µM; GI50 [35]: 0.314 µM; TGI [35]: > 100 µM; GI50 [36]: 0.0538 µM; TGI [36]: > 100 µM; GI50 [37]: 0.211 µM; TGI [37]: > 100 µM; GI50 [38]: 1.61 µM; TGI [38]: 22.4 µM; GI50 [39]: 0.337 µM; TGI [39]: 14.1 µM; GI50 [40]: 0.336 µM; TGI [40]: 10.8 µM; GI50 [41]: 0.628 µM; TGI [41]: 74 µM; GI50 [42]: 0.275 µM; TGI [42]: > 100 µM; GI50 [43]: 0.145 µM; TGI [43]: 18 µM; GI50 [44]: 3.26 µM; TGI [44]: > 79 µM; GI50 [45]: 0.172 µM; TGI [45]: 0.58 µM; GI50 [46]: 0.76 µM; TGI [46]: > 100 µM; GI50 [47]: 1.33 µM; TGI [47]: > 100 µM; GI50 [48]: 0.638 µM; TGI [48]: 37.1 µM; GI50 [49]: 0.37 µM; TGI [49]: 12.7 µM; GI50 [50]: 0.154 µM; TGI [50]: > 100 µM; GI50 [51]: 0.066 µM; TGI [51]: 0.193 µM; GI50 [52]: 0.7 µM; TGI [52]: 35.5 µM; GI50 [53]: 0.181 µM; TGI [53]: 4.38 µM; GI50 [54]: 0.33 µM; TGI [54]: 32.5 µM; GI50 [55]: 0.392 µM; TGI [55]: > 38.3 µM; GI50 [56]: 0.671 µM; TGI [56]: 66.1 µM; GI50 [57]: 1.22 µM; TGI [57]: > 100 µM; GI50 [58]: 0.633 µM; TGI [58]: 19.3 µM
